This passage reports EC50 results from article PMC3205184, “Competitive binding at a nicotinic receptor transmembrane site of two α7-selective positive allosteric modulators with differing effects on agonist-evoked desensitization” (Neuropharmacology, 2011).

For the assay, the target named is T1, α7 nicotinic acetylcholine receptor (α7 nAChR) (Rattus norvegicus, UniProt Q05941).
T1 construct: gene Chrna7
Nature of the assay: two-electrode voltage clamp in Xenopus oocytes; potentiation of EC20 acetylcholine responses, with site-directed mutants. Format: cell-based. Background: In two-electrode clamp one electrode senses voltage and the other passes current.

As a reminder, the EC50 is the concentration at which the effect is half-maximal.

T1 sequence (Q05941 23-502): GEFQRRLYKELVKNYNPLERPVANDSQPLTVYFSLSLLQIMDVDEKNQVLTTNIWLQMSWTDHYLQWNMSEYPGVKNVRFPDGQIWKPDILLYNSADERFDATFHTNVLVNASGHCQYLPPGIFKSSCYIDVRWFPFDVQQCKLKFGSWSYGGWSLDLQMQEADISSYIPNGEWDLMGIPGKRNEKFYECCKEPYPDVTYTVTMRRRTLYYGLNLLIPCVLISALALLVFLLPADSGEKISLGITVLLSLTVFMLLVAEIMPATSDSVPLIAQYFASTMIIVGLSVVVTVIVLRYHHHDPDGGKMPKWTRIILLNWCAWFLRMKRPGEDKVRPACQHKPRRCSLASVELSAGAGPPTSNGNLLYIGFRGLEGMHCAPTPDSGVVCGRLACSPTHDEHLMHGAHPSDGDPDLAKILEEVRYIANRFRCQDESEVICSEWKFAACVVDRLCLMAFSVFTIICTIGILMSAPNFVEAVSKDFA

Regarding `O=C(Nc1cc(Cl)ccc1O)Nc1cc(C(F)(F)F)ccc1Cl` [NS1738], the EC50 amounted to 6.7 ± 1.8 µM.
